The source of these data is paper PMC10161222, “Small Molecule Decoys of Aggregation for Elimination of Aβ-Peptide Toxicity” (ACS Chemical Neuroscience, 2023).

The assay has as its target T1, Aβ40 (Homo sapiens, UniProt P05067).
T1 construct: gene APP; 40-residue peptide cut from APP; IC50 rows: purchased mixture of HiLyte Fluor 488- and HiLyte Fluor 647-labelled human peptide (AnaSpec); ThT and TEM rows: unlabelled human recombinant peptide; self-associating, small oligomers of at most 8 monomers
Put plainly: FRET-FCS early aggregation, molecular brightness (counts per particle). It counts as biochemical. The note with it: inhibition of oligomer formation; HiLyte 488/647-labelled Aβ40 (about 100 nM + 200 nM), 20 mM HEPES pH 7.4.

The term pIC50 denotes the negative decadic logarithm of the IC50, by convention in mol/L.

Structures are written as SMILES. pIC50: −log10 of the molar value.

T1 sequence (P05067 672-711 limits assumed): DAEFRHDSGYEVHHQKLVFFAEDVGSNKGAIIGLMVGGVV

With `COc1cc(-c2ccc(N=Nc3cc(S(=O)(=O)O)c4ccccc4c3O)c(OC)c2)ccc1N=Nc1cc(S(=O)(=O)O)c2ccccc2c1O` [#2, NSC 9615], the pIC50 was 6.89.
